Test results as given in ChEMBL document CHEMBL1157697, “Novel ester and acid derivatives of the 1,5-diarylpyrrole scaffold as anti-inflammatory and analgesic agents. Synthesis and in vitro and in vivo biological evaluation” (J Med Chem, 2010).
Active and inactive are the calls of the source. No cut-off for these calls is given here.

Key:
[1] = species: Mus musculus; experiment: Selectivity index, ratio of IC50 for mouse COX1 to IC50 for mouse COX2
[2] = target: Prostaglandin G/H synthase 1 (Homo sapiens, UniProt P23219); experiment: Inhibition of COX1 in human whole blood assessed as thromboxane B2 production by RIA; assay type: tissue-based
[3] = target: T1, Prostaglandin G/H synthase 2 (Homo sapiens, UniProt P35354); experiment: Inhibition of COX2 in human whole blood assessed as inhibition of LPS-induced PGE2 production by RIA; assay type: tissue-based
T1 sequence (P35354 whole entry): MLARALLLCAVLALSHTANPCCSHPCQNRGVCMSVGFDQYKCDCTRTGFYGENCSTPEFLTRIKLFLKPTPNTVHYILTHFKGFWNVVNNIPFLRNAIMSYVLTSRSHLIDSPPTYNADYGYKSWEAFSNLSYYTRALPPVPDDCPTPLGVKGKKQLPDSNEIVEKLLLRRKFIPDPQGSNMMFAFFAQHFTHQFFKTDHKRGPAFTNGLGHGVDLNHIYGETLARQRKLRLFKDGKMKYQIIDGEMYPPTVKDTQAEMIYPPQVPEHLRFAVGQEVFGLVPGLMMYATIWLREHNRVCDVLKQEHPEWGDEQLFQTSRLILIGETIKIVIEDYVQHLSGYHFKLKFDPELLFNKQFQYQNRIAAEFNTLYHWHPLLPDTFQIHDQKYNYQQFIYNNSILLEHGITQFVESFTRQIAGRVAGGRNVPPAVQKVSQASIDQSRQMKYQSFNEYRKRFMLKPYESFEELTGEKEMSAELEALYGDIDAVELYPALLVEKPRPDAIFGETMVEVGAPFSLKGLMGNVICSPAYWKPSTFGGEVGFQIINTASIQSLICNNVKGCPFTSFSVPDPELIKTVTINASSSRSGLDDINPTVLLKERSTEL

[4] = test system: Rattus norvegicus; experiment: Antiinflammatory activity against carrageenan-induced paw edema rat inflammatory model assessed as paw pressure at 20 mg/kg, po after 30 mins; assay type: functional
[5] = test system: Rattus norvegicus; experiment: Antiinflammatory activity against carrageenan-induced paw edema rat inflammatory model assessed as paw pressure at 20 mg/kg, po after 60 mins; assay type: functional
[6] = test system: Rattus norvegicus; experiment: Antiinflammatory activity against carrageenan-induced paw edema rat inflammatory model assessed as paw pressure at 20 mg/kg, po after 120 mins; assay type: functional
[7] = test system: Rattus norvegicus; experiment: Antiinflammatory activity against carrageenan-induced paw edema rat inflammatory model assessed as paw volume at 20 mg/kg, po after 60 mins; assay type: functional
[8] = test system: Rattus norvegicus; experiment: Antiinflammatory activity against carrageenan-induced paw edema rat inflammatory model assessed as suppression of paw edema at 20 mg/kg, po after 60 mins; assay type: functional
[9] = Metabolic stability in human liver microsomes at 10 uM; assay type: ADME, Microsome; details: read-out: Stability; note: time not given here
[10] = Metabolic stability in human liver microsomes at 0.1 uM; assay type: ADME, Microsome; details: read-out: Stability; note: time not given here
[11] = target: T2, Prostaglandin G/H synthase 1 (Mus musculus, UniProt P22437)
T2 sequence (P22437 whole entry): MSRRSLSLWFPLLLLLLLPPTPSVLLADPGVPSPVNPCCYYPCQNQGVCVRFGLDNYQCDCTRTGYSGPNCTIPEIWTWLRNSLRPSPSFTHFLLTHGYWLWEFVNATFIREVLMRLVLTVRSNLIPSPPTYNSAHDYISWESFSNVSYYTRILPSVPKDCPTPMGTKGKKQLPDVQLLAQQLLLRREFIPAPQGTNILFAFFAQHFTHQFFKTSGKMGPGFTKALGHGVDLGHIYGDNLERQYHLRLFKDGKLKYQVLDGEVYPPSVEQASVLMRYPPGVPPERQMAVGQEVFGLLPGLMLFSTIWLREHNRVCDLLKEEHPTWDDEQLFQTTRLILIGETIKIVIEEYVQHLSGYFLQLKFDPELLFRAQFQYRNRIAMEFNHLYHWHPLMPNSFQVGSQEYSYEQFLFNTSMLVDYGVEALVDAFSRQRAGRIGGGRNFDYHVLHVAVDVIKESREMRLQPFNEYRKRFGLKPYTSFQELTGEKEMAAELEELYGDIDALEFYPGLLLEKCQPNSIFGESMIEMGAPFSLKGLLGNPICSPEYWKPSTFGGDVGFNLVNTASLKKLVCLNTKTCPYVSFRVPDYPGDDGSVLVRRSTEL
Description: Inhibition of COX1-dependent PGE2 production in LPS-stimulated mouse J774 cells by RIA

[12] = target: T3, Prostaglandin G/H synthase 2 (Mus musculus, UniProt Q05769)
T3 sequence (Q05769 whole entry): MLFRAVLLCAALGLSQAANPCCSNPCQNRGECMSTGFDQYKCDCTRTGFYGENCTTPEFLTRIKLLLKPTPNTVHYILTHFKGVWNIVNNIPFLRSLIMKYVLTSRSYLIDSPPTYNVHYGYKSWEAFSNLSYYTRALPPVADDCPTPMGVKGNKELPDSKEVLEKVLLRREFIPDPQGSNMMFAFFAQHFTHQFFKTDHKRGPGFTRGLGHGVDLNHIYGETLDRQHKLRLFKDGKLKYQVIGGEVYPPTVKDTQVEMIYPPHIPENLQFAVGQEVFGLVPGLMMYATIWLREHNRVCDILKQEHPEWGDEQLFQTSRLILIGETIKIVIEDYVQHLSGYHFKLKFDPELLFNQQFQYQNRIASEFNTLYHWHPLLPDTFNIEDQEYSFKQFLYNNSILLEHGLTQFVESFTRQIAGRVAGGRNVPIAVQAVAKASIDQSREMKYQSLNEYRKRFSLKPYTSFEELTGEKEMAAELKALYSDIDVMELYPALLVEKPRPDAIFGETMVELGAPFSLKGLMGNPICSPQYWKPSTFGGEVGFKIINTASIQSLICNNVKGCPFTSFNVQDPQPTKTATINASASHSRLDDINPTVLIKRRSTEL
Description: Inhibition of COX2-dependent PGE2 production in LPS-stimulated mouse J774 cells by RIA

[13] = test system: Mus musculus; experiment: Analgesic activity against acetic acid-induced mouse abdominal constriction assessed as writhing at 20 mg/kg, po; details: Abdomen
[14] = test system: Mus musculus; experiment: Analgesic activity against acetic acid-induced po dosed mouse abdominal constriction assessed as writhing; details: Abdomen
[15] = test system: Mus musculus; experiment: Analgesic activity against acetic acid-induced mouse abdominal constriction assessed as writhing at 10 mg/kg, po; details: Abdomen

Chain of Prostaglandin G/H synthase 1 (Homo sapiens, UniProt P23219) (P23219 whole entry): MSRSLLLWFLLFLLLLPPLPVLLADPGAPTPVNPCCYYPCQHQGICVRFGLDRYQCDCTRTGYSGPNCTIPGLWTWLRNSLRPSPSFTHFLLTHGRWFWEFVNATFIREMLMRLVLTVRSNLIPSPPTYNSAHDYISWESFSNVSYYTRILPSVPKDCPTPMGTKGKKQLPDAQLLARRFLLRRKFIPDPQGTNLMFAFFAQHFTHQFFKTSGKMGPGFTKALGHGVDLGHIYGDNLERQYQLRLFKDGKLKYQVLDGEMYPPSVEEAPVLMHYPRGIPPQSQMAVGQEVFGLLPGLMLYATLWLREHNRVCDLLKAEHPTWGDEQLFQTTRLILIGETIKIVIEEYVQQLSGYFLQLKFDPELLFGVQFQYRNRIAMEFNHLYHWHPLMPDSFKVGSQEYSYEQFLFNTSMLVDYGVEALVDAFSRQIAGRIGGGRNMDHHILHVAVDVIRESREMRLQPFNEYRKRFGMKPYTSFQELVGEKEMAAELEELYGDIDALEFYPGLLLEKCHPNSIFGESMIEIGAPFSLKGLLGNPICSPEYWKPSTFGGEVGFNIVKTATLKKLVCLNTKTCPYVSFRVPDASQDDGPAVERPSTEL

Row | Compound | Ratio IC50 [1] | IC50 [2] [nM] | IC50 [3] [nM] | Activity [4] [g] | Activity [5] [g] | Activity [6] [g] | Activity [7] [mL] | Activity [8] [%] | remaining at 10 µM [9] [%] | remaining at 0.1 µM [10] [%] | IC50 [11] [nM] | IC50 [12] [nM] | Activity [13] | Activity [14] | Activity [15]
1 | Cc1c(CC(=O)O)cc(-c2ccc(S(C)(=O)=O)cc2)n1-c1ccccc1 | > 100 | 132000 | 7000 | 48.6 | 51.8 | 41.6 | 1.86 | 42.7 | 97 | 94 |  |  |  |  | 
2 | Cc1c(CC(=O)O)cc(-c2ccc(S(C)(=O)=O)cc2)n1-c1ccc(F)c(F)c1 | 38 |  |  | 58.3 | 54.1 | 48.6 | 1.42 | 90.9 | 100 | 100 | 10000 | 260 | Active |  | 
3 | Cc1c(CC(=O)OC(C)C)cc(-c2ccc(S(C)(=O)=O)cc2)n1-c1ccc(F)c(F)c1 | > 4700 |  |  | 64.8 | 52.3 | 58.3 | 1.39 | 89 | 13 | 0 | > 100000 | 21 |  |  | 
4 | CCOC(=O)Cc1cc(-c2ccc(S(C)(=O)=O)cc2)n(-c2ccccc2)c1C | > 2500 |  |  |  |  |  |  |  |  |  |  |  |  |  | 
5 | Cc1c(CC(=O)OC(C)C)cc(-c2ccc(S(C)(=O)=O)cc2)n1-c1cccc(F)c1 | > 2300 | 24000 | 2000 | 59.5 | 57.9 | 45.2 | 1.31 | 87.2 | 1 | 0 | > 100000 | 43 |  | Dose-dependent effect | 
6 | CCCCOC(=O)Cc1cc(-c2ccc(S(C)(=O)=O)cc2)n(-c2cccc(F)c2)c1C | > 4100 |  |  | 49.7 | 46.9 | 45.2 | 1.71 | 67.2 | 2 | 0 | > 100000 | 24 |  |  | 
7 | COc1ccc(-n2c(-c3ccc(S(C)(=O)=O)cc3)cc(CC(=O)O)c2C)cc1 | > 580 |  |  | 52.3 | 39.8 | 36.2 | 1.81 | 50.9 | 84 | 77 | > 100000 | 170 |  |  | 
8 | COc1ccc(-n2c(-c3ccc(S(C)(=O)=O)cc3)cc(CC(=O)OC(C)C)c2C)cc1 | > 4500 |  |  | 51 | 56.7 | 41.7 | 1.41 | 77.2 | 1 | 7 | > 100000 | 22 |  |  | 
9 | CCCCOC(=O)Cc1cc(-c2ccc(S(C)(=O)=O)cc2)n(-c2ccc(F)c(F)c2)c1C | > 3300 |  |  | 52.7 | 59.2 | 56.6 | 1.52 | 73.6 | 15 | 2 | > 100000 | 30 | Active |  | 
10 | CCCCOC(=O)Cc1cc(-c2ccc(S(C)(=O)=O)cc2)n(-c2ccc(OC)cc2)c1C | > 2600 |  |  | 53.4 | 51.4 | 50.8 | 1.45 | 89.1 | 2 | 5 | > 100000 | 38 | Active |  | Active
11 | CCCCOC(=O)Cc1cc(-c2ccc(S(C)(=O)=O)cc2)n(-c2ccccc2)c1C | > 7100 |  |  | 52.5 | 46.3 | 42.6 | 1.68 | 66.3 | 3 | 7 | > 100000 | 14 |  |  | 
12 | Cc1c(CC(=O)O)cc(-c2ccc(S(C)(=O)=O)cc2)n1-c1cccc(F)c1 | > 3500 | 125000 | 17000 | 54.8 | 55.2 | 43.1 | 1.35 | 93.6 | 100 | 100 | > 100000 | 28 | Active | Dose-dependent effect | 
